Measured values reported in patent publication US20100113570A1, “PREVENTION AND TREATMENT OF POST-OPERATIVE COGNITIVE DYSFUNCTION” (The General Hospital Corporation, priority 2008, published 2010).

How the values were obtained:
H4-APP cells [1] = assay: Caspase-3 activation by Western blot (ratio of caspase-3 fragment to FL-caspase-3) in H4-APP cells; format: cell-based, human
Experimental: (§1) Cell lines. We used naive H4 human neuroglioma cells stably transfected to express full-length APP (FL-APP; H4-APP cells) in the studies. The cells were cultured in DMEM (high glucose) containing 9% heat inactivated fetal calf serum, 100 U/ml penicillin, 100 μg/ml streptomycin, 2 mM L-glutamine, and 200 μg/ml G418.
(§2) Cell treatment. Twenty-one percent O2, 5% CO2, and 2% isoflurane were delivered from an anesthesia machine to a sealed plastic box in a 37° Celsius incubator containing six-well plates seeded with one million cells in 1.5 ml of cell culture media as described in our previous studies (Xie et al., 2006a,b, 2007). Date infrared gas analyzer (Puritan-Bennett, Tewksbury, Mass.) was used to continuously monitor the delivered CO2, O2, and isoflurane concentrations. We treated the cells with 2% isoflurane for 6 h, during which time the cells were incubated in serum-free media. In the interaction studies, the cells were treated with memantine (4 μM) 1 h before the treatment of 2% isoflurane. Low-calcium condition was created by using a calcium-free cell culture media (Invitrogen, Carlsbad, Calif.) and by adding EDTA (10 mM; Sigma-Aldrich, St. Louis, Mo.), a chelating compound (Rekasi et al., 2005), or BAPTA (10 μM; Sigma-Aldrich), an intracellular calcium chelator, to the media. […] These siRNAs and control siRNAs (3′[…]) were obtained from Dharmacon (Lafayette, Colo.). siRNAs were transfected into cells by using electroporation (Amaxa Biosystems, Gaithersburg, Md.) as described by Xie et al. (2005b). Briefly, we mixed 1 million cells, 100 μl of AMAXA electroporation transfection solution, and 10 μl of 20 μM siRNA together and then used the C-9 program in an AMAXA electroporation device for cell transfection. The transfected cells were then placed in one of the six-well plates containing 1.5 ml of cell culture media. The pretreated cells were then exposed to the isoflurane treatment.
Cell lysis and protein amount quantification. Cell pellets were detergent-extracted on ice using immunoprecipitation buffer (10 mM Tris-HCl, pH 7.4, 150 mM NaCl, 2 mM EDTA, 0.5% Nonidet P-40) plus protease inhibitors (1 μg/ml aprotinin, 1 μg/ml leupeptin, 1 μg/ml pepstatin A). The lysates were collected, centrifuged at 12,000 rpm for 10 min, and quantified for total proteins by a BCA protein assay kit (Pierce Technology Corporation, Iselin, N.J.).
Western blot analysis. The harvested cells and brain tissues were subjected to Western blots as described by Xie et al. (2005a). A caspase-3 antibody (1:1000 dilution; Cell Signaling Technology, Beverly, Mass.) was used to recognize caspase-3 fragment (17-20 kDa) resulting from cleavage at asparate position 175 and FL-caspase-3 (35-40 kDa). Caspase-3 cleavage (activation) is based on the ratio of caspase-3 fragment to FL caspase-3. Antibody anti-b-actin was used to visualize b-actin (42 kDa). Antibodies for IP3 receptor (1:1000; Millipore Bioscience Research Reagents, Temecula, Calif.), NR1 (1:1000; PhosphoSolutions, Aurora, Colo.), and SERCA1 (1:1000; Abcam, Cambridge, Mass.) were used to recognize IP3 receptor (250 kDa), NR1 (120 kDa), and SERCA1 (110 kDa). The quantitation of Western blots was performed as described by Xie et al. (2005a). Briefly, the intensity of signals was analyzed by using a Bio-Rad (Hercules, Calif.) image program (Quantity One) and an NIH Image version 1.37v. We quantified the Western blots using two steps.

H4-APP cells [2] = assay: Cell apoptosis assay (cell death detection ELISA); format: cell-based, human
Experimental: as §1, §2

H4-APP cells [3] = assay: MTT cell viability assay; format: cell-based, human
Experimental: as §1, §2

caspase-3 = assay: Caspase-3 activation in brain tissue of naive mice (Western blot); format: in vivo
Experimental: Mice treatment. The animal protocol was approved by the Massachusetts General Hospital Standing Committee on Animals Sixteen female C57BL/6 mice (5-6 months of age) (The Jackson Laboratory, Bar Harbor, Me.) were randomly assigned to an anesthesia or control group. […] This isoflurane treatment allows the mice to have sufficient exposure to isoflurane while avoiding excessive accumulation of CO2. The control mice (n=8) received 100% oxygen at an identical flow rate for 6 h and 20 min in an identical chamber. The mice breathed spontaneously, and anesthetic and oxygen concentrations were measured continuously (Datex, Puritan-Bennett; Ohmeda PPD, Madison, Wis.). Rectal temperature was measured intermittently, and the temperature of the anesthetizing chamber was controlled to maintain rectal temperature of the animals at 37±0.5° C. Mean arterial blood pressure was measured noninvasive using a tail cuff (CODA2 system; Kent Scientific Corporation, Torrington, Conn.) in the anesthetized mice. […] Mice were killed by decapitation at the end of the experiments, the brain was removed rapidly, and the prefrontal cortex was dissected out and frozen in liquid nitrogen for subsequent processing for the determination of caspase-3activation. […] Brain tissue lysis and protein amount quantification. […] The lysates were collected, centrifuged at 12,000 rpm for 10 min, and quantified for total proteins by a BCA protein assay kit (Pierce Technology Corporation). Western blot analysis. The harvested cells and brain tissues were subjected to Western blots as described by Xie et al. (2005a). […] Caspase-3 cleavage (activation) is based on the ratio of caspase-3 fragment to FL caspase-3. Antibody anti-b-actin was used to visualize b-actin (42 kDa). […] The quantitation of Western blots was performed as described by Xie et al. (2005a). Briefly, the intensity of signals was analyzed by using a Bio-Rad (Hercules, Calif.) image program (Quantity One) and an NIH Image version 1.37v. We quantified the Western blots using two steps. […] Data were expressed as mean±SD. […]

H4-APP cells [4] = assay: Cytosolic calcium measurement (Fura-2 ratio); format: cell-based, human
Experimental: Cytosolic calcium measurement. Cytosolic calcium levels were determined as described by Wei et al. (2008). Specifically, H4-APP cells were loaded with Fura-2 (Invitrogen), perfused with Tyrode buffer, and [Ca2+]i transients were recorded as changes in Fura-2 ratio (340/380 nm) using a spectrofluoroscope system (Ionoptix, Milton, Mass.).

[5] = Blood pressure and blood gas of anesthetized mice; format: in vivo; conditions: 1.4% isoflurane for 2 h; data not shown
Experimental: Mice treatment. The animal protocol was approved by the Massachusetts General Hospital Standing Committee on Animals Sixteen female C57BL/6 mice (5-6 months of age) (The Jackson Laboratory, Bar Harbor, Me.) were randomly assigned to an anesthesia or control group. […] This isoflurane treatment allows the mice to have sufficient exposure to isoflurane while avoiding excessive accumulation of CO2. The control mice (n=8) received 100% oxygen at an identical flow rate for 6 h and 20 min in an identical chamber. The mice breathed spontaneously, and anesthetic and oxygen concentrations were measured continuously (Datex, Puritan-Bennett; Ohmeda PPD, Madison, Wis.). Rectal temperature was measured intermittently, and the temperature of the anesthetizing chamber was controlled to maintain rectal temperature of the animals at 37±0.5° C. Mean arterial blood pressure was measured noninvasive using a tail cuff (CODA2 system; Kent Scientific Corporation, Torrington, Conn.) in the anesthetized mice. […] Mice were killed by decapitation at the end of the experiments, the brain was removed rapidly, and the prefrontal cortex was dissected out and frozen in liquid nitrogen for subsequent processing for the determination of caspase-3activation.

MTT cell viability assay = format: cell-based, human; conditions: human, MTT
Experimental: as §1, §2

[6] = memantine 4 μM alone vs control conditions
[7] = isoflurane plus control siRNA, control = 100%

CC12CC3CC(C)(C1)CC(N)(C3)C2 [memantine]
caspase-3 activation, memantine plus isoflurane (H4-APP cells [1]; memantine 4 μM 1 h before 2% isoflurane for 6 h, H4-APP cells, control = 100%): 101% | caspase-3 activation, memantine alone (H4-APP cells [1]; memantine 4 μM alone vs control conditions, H4-APP cells): did not induce caspase-3 activation | cell apoptosis, memantine alone (H4-APP cells [2]; [6]): had no effects on either cell viability or apoptosis | cell apoptosis, memantine plus isoflurane (H4-APP cells [2]; memantine 4 μM plus 2% isoflurane for 6 h, control = 100%): 99% | cell viability, memantine alone (H4-APP cells [3]; [6]): had no effects on either cell viability or apoptosis | cell viability, memantine plus isoflurane (H4-APP cells [3]; memantine 4 μM plus 2% isoflurane for 6 h, percent of control, MTT): 95% | caspase-3 activation in mouse brain, memantine plus isoflurane (caspase-3; memantine 20 mg/kg i.p. 1 h before three sessions of 1.4% isoflurane for 2 h, control = 100%): 97% | caspase-3 activation in mouse brain, memantine alone (caspase-3; memantine 20 mg/kg intraperitoneal alone vs control condition): did not induce caspase-3 activation | isoflurane-induced elevation in cytosolic calcium levels, memantine pretreatment (H4-APP cells [4]; pretreated with memantine 4 μM, then isoflurane 1 mM or 3.5%): isoflurane failed to increase cytosolic calcium levels

O=C(O)CN(CCN(CC(=O)O)CC(=O)O)CC(=O)O [EDTA, ethylenediaminetetraacetic acid]
reduction in caspase-3 activation compared with isoflurane plus normal calcium (H4-APP cells [1]; isoflurane plus low calcium and EDTA (10 mM), H4-APP cells): 68%

O=C(O)CN(CC(=O)O)c1ccccc1OCCOc1ccccc1N(CC(=O)O)CC(=O)O [BAPTA, 1,2-bis (o-aminophenoxy)ethane-N,N,N′,N′-tetraacetic acid]
caspase-3 activation, BAPTA plus isoflurane (H4-APP cells [1]; BAPTA 10 μM plus 2% isoflurane for 6 h, control = 100%): 154% | caspase-3 activation, BAPTA alone (H4-APP cells [1]; BAPTA plus control condition vs DMSO plus control condition): does not induce caspase-3 activation

FC(F)OC(Cl)C(F)(F)F (centres unmarked) [isoflurane]
caspase-3 activation compared with control conditions (H4-APP cells [1]; 2% isoflurane for 6 h alone, H4-APP cells, control = 100%): 184% | caspase-3 activation, isoflurane plus DMSO (BAPTA experiment) (H4-APP cells [1]; 2% isoflurane for 6 h plus DMSO, control = 100%): 185% | caspase-3 activation, isoflurane plus control siRNA (NR1 experiment) (H4-APP cells [1]; 2% isoflurane for 6 h plus control siRNA, control = 100%): 168% | caspase-3 activation, isoflurane plus control siRNA (IP3 receptor experiment) (H4-APP cells [1]; [7]): 292% | caspase-3 activation, isoflurane plus control siRNA (SERCA1 experiment) (H4-APP cells [1]; [7]): 194% | cell apoptosis compared with control conditions (H4-APP cells [2]; 2% isoflurane for 6 h alone, control = 100%): 137% | effect on blood pressure and venous blood gas [5]: did not significantly affect blood pressure and venous blood gas | viability at 6 h, 2 % (MTT cell viability assay; 2% isoflurane for 6 h, percent of control, read-out: cell viability, isoflurane alone): 74% | cytotoxicity at 6 h, 2 % (MTT cell viability assay; 2% isoflurane for 6 h vs control conditions, read-out: reduction in cell viability): 26% | caspase-3 activation in mouse brain compared with control condition (caspase-3; three sessions of 1.4% isoflurane for 2 h, prefrontal cortex, control = 100%): 177% | cytosolic calcium levels, isoflurane (H4-APP cells [4]; isoflurane 1 mM or 3.5%): can elevate cytosolic calcium levels
